Assay results: patent publication US9278982B2, “Targeting human thymidylate kinase induces DNA repair toxicity in malignant tumor cells” (NATIONAL YANG-MING UNIVERSITY, priority 2010, dated 2016)
“Also recorded” adds a separate entry of the source.

How the values were obtained:
[1] = system: panel of cell lines; experiment: Doxorubicin sensitization, MTS viability assay, summary over the panel of cell lines; type: cell-based, human; settings: all these cell lines; 72 h pre-treatment
Method: (§1) FIG. 16. In vitro and in vivo effect of YMU1 on doxorubicin sensitization. (A) A panel of cell lines were pre-treated with vehicle, YMU1 (compound 21), D6 (ethyl 4-(2-chloroacetyl)piperazine-1-carboxylate) or D7 (compound 28) for 3 days and were exposed to different concentration of doxorubicin for 4 h. […] The enhancement (fold) of doxorubicin sensitivity in each cell line was calculated. Data represent mean±s.d., n=3; each experiment was quadruplex. Inset indicates the IC50 value of doxorubicin in various cell lines. […] Following overnight culture, cells were refreshed with growth medium. After 14 days of culture, colonies were fixed, stained by crystal violet and counted. (C) HCT-116 p53^−/− cells were subcutaneously implanted in the right flank of Balb/c nude mice (each experimental group n=8). Arrow indicated the time of stopping drug treatment. The tumor volume was estimated as described in Methods of the Invention section. (D) After 2 weeks recovered from treatment, mice were sacrificed for tumor weight measurement. Data represent mean±s.e.m; **, P<0.01 by a two-tailed Student's t-test. (E) Ki 67 proliferation marker staining of tumor shown in left panel. Scale bar, 50 μm. (F) Model of doxorubicin sensitization by YMU1 in malignant cancer cells. Both R2/R1 and TMPK are recruited to the site of doxorubicin-induced double-strand breaks, where dATP, dGTP, dCTP, dTTP and dUTP are site-specific synthesized. Inhibition of TMPK decreases dTTP formation at DNA damage sites, causing futile DNA repair due to dUTP incorporation.
(§2) Next, various human cancer cell lines were treated with YMU1, D6 or D7 for 72 h to test the potential of TMPK inhibitor in doxorubicin sensitization. After exposure to different concentration of doxorubicin for 4 h, cells were refreshed for viability analysis after 2 days and the IC50 value for doxorubicin in each of the cell lines was determined (FIG. 16A and Table 2).
The ability of YMU1 to sensitize non-tumorigenic mammary cycling H184B5F5/M10, MCF10A, primary human mammary epithelial (HMEC) and primary renal epithelial (HREC) cells and IMR-90 embryonic lung fibroblasts to doxorubicin was much weaker.
(§3) Cells plated into a 96-well plate (10^3 cells/well) were treated and cell viability was measured by MTS assay (Promega) (Cory et al., 1991). An annexin V-fluorescein isothiocyanate (FITC) apoptosis kit (Calbiochem) was used to detect apoptosis. The cell cycle analysis was performed by staining cells with propidium iodide (PI) for fluorescence-activated cell sorter (FACS) analysis with CellQuest software.

[2] = molecular target: T1, TMPK (Homo sapiens, UniProt P23919); experiment: Luciferase-coupled TMPK assay; type: biochemical; parameters: GST (N, cleaved yes); made in house; host or cells: E. coli JM109 (pGEX-2T-hTMPK); settings: purified hTMPK protein (0.5 μg), 10 min preincubation
T1 sequence (P23919 1-212): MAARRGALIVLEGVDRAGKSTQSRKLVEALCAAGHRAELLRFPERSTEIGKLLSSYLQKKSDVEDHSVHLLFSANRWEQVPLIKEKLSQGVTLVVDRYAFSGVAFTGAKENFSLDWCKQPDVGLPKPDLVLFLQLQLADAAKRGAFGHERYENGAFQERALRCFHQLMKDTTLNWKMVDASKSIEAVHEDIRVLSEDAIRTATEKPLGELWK
Method: FIG. 12. Identification of a novel hTMPK inhibitor. (A) A screen of TMPK inhibitor by luciferase-coupled assay. (B) The chemical structures of YMU1 (compound 21) and related molecules. (C) Effect of YMU1 and derivative compounds on hTMPK inhibition using purified hTMPK protein (0.5 μg) with 10 min preincubation prior to reaction using luciferase-coupled TMPK analysis. (D) Effect of YMU1 on activity of purified TMPK (0.5 μg) and GST-hTK1 protein (5 μg) with 10 min preincubation prior to reaction. Data represent mean±s.d. (n=4) (E) Molecular models of the TMPK-YMU1 complex. Left panel: TMPK/ATP/Mg+2; right panel: TMPK/YMU1. The TMPK is represented in surface electrostatic potential (upper) and structural ribbon (lower). ATP and YMU1 are shown in green and blue stick, respectively, with colored atom (O, red; S, yellow; P, orange). TMP is shown in white backbone and Mg+2 in purple. Arrow indicates the position of Asp15.
Based on the functional requirement of TMPK in DNA repair specifically in tumor cells with elevated level of R2 expression, we searched for inhibitors of hTMPK that might be useful in selectively sensitizing tumor cells to doxorubicin. […] The synthetic procedure and structural elucidation of YMU1 (compound 21) are described in the Methods of the Invention section of the application.
The TMPK reaction was started by adding purified hTMPK in 50 μl of TMPK assay buffer (100 mM Tris-HCl, pH 7.5, 100 mM KCl, 10 mM MgCl2, 50 μM ATP and 100 μM dTMP) in 96 wells plate at 25° C. for 10 min and terminated by adding 200 μl of DTNB (100 μM), followed by transferring 10 μl of reaction solution to a white 96-wellplate containing 90 μl of luciferase assay buffer (50 mM Glycine, 0.5 mM EDTA and 5 mM EDTA, pH 7.0, 0.1 μg of luciferase, 50 μM luciferin and 0.1% BSA). The luminescence was measured with a luminescence counter (Packard).

[3] = molecular target: T1, TMPK; experiment: In vitro TMPK inhibitory activity of TMPK inhibitor derivatives (inhibition yield); type: biochemical; parameters: GST (N, cleaved yes); made in house; host or cells: E. coli JM109 (pGEX-2T-hTMPK), inferred; settings: n=3 or 6, read-out: inhibition yield, normalized to compound 21 (YMU1) = 100%
Text: Chemical structures of the different TMPK inhibitor derivatives tested for in vitro TMPK inhibitory activity and in vivo doxorubicin sensitization activity (in MDA-MB231 cells) are depicted below.

[4] = system: MDA-MB231; experiment: Doxorubicin sensitization, MTS viability assay; type: cell-based, human; settings: MDA-MB231 cell treatment, compound at 2 μM
Method: as §1, §2, §3

Row | Compound | inhibition at 2 µM [3] [%] | other results
1 | CCOC(=O)N1CCN(C(=O)CI)CC1 [D6, ethyl 4-(2-iodoacetyl)piperazine-1-carboxylate] | – | doxorubicin sensitization effect [1]: had no doxorubicin sensitization effect; inhibition against hTMPK [2]: Neither D6 (as the piperazine fragment of YMU1) nor D7 (as the O-alkylation isomer of YMU1) showed any inhibition; also recorded: do not inhibit TMPK
2 | Cc1ccc2c(=O)[nH]sc2n1 [compound 3, 6-Methylisothiazolo[5,4-b]pyridin-3(2H)-one] | 76.5 | –
3 | Cc1cc(C)c2c(=O)[nH]sc2n1 [compound 4, 4,6-Dimethylisothiazolo[5,4-b]pyridin-3(2H)-one] | 28 | inhibition against hTMPK ([2]; listed as D3): weak inhibitory activity; also recorded: do not inhibit TMPK
4 | CCOC(=O)N1CCN(C(=O)N2Cc3ccccc3C2=O)CC1 [compound 5, Ethyl 4-(1-oxoisoindoline-2-carbonyl)piperazine-1-carboxylate] | 92.9 | –
5 | COC(=O)Cn1sc2ccccc2c1=O [compound 6, Methyl 2-(3-oxobenzo[d]isothiazol-2(3H)-yl)acetate] | 96 | –
6 | COC(=O)Cn1sc2nc(C)cc(C)c2c1=O [compound 7, Methyl 2-(4,6-dimethyl-3-oxoisothiazolo[5,4-b]pyridin-2(3H)-yl)acetate] | 98.3 | melting point: 89 to 91 °C
7 | O=C(O)Cn1sc2ccccc2c1=O [compound 8, 2-(3-oxobenzo[d]isothiazol-2(3H)-yl)acetic acid] | 29.1 | –
8 | Cc1cc(C)c2c(=O)n(CC(=O)O)sc2n1 [compound 9, 2-(4,6-Dimethyl-3-oxoisothiazolo[5,4-b]pyridin-2(3H)-yl)acetic acid] | 47 | –
9 | O=C(Cn1sc2ccccc2c1=O)N1CCNCC1 [compound 10, 2-(2-Oxo-2-(piperazin-1-yl)ethyl)benzo[d]isothiazol-3(2H)-one] | 96.8 | inhibition against hTMPK [2]: considerable inhibitory function; enhancement on doxorubicin sensitization [4]: had no effect
10 | CCOC(=O)N1CCN(C(=O)Cn2sc3ccccc3c2=O)CC1 [compound 11, Ethyl 4-(2-(3-oxobenzo[d]isothiazol-2(3H)-yl)acetyl)piperazine-1-carboxylate] | – | inhibition [3]: 100%
11 | CC(C)(C)OC(=O)N1CCN(C(=O)Cn2sc3ccccc3c2=O)CC1 [compound 12, Tert-butyl 4-(2-(3-oxobenzo[d]isothiazol-2(3H)-yl)acetyl)piperazine-1-carboxylate] | 124 | enhancement on doxorubicin sensitization [4]: 30 fold
12 | O=C(Cn1sc2ccccc2c1=O)N1CCN(C(=O)OCc2ccccc2)CC1 [compound 13, Benzyl 4-(2-(3-oxobenzo[d]isothiazol-2(3H)-yl)acetyl)piperazine-1-carboxylate] | 127 | –
13 | O=C(Cn1sc2ccccc2c1=O)N1CCN(C(=O)Oc2ccc([N+](=O)[O-])cc2)CC1 [compound 14, 4-Nitrophenyl 4-(2-(3-oxobenzo[d]isothiazol-2(3H)-yl)acetyl)piperazine-1-carboxylate] | 129 | –
14 | C=CCN1CCN(C(=O)Cn2sc3ccccc3c2=O)CC1 [compound 15, 2-(2-(4-Allylpiperazin-1-yl)-2-oxoethyl)benzo[d]isothiazol-3(2H)-one] | 102 | –
15 | O=C(CN1C(=O)c2ccccc2S1(=O)=O)N1CCNCC1 [compound 16, 2-(2-Oxo-2-(piperazin-1-yl)ethyl)benzo[d]isothiazol-3(2H)-one 1,1-dioxide] | 11.8 | –
16 | CC(C)(C)OC(=O)N1CCN(C(=O)CN2C(=O)c3ccccc3S2(=O)=O)CC1 [compound 17, Tert-butyl 4-(2-(3-oxobenzo[d]isothiazol-2(3H)-yl)acetyl)piperazine-1-carboxylate 1,1-dioxide] | 10.1 | –
17 | CC(C)(C)OC(=O)N1CCN(C(=O)CN2C(=O)c3ccccc3C2=O)CC1 [compound 18, Tert-Butyl 4-[2-(1,3-dioxo-1,3-dihydro-isoindol-2-yl)-acetyl]-piperazine-1-carboxylate] | 51.4 | –
18 | Cc1cc(C)c2c(=O)n(CC(=O)N3CCOCC3)sc2n1 [compound 19, 4,6-Dimethyl-2-(2-morpholino-2-oxoethyl)isothiazolo[5,4-b]pyridin-3(2H)-one] | 100 | enhancement on doxorubicin sensitization [4]: had no effect
19 | Cc1cc(C)c2c(=O)n(CC(=O)N3CCNCC3)sc2n1 [compound 20, 4,6-Dimethyl-2-(2-oxo-2-(piperazin-1-yl)ethyl)isothiazolo[5,4-b]pyridin-3(2H)-one] | 99.5 | –
20 | Cc1cc(C)c2c(=O)n(CC(=O)N3CCN(C(=O)OC(C)(C)C)CC3)sc2n1 [compound 22, Tert-butyl 4-(2-(4,6-dimethyl-3-oxoisothiazolo[5,4-b]pyridin-2(3H)-yl)acetyl) piperazine-1-carboxylate] | 112 | –
21 | CCOC(=O)N1CCN(C(=O)CCCn2sc3ccccc3c2=O)CC1 [compound 23, Ethyl 4-(4-(3-oxobenzo[d]isothiazol-2(3H)-yl)butanoyl)piperazine-1-carboxylate] | 0 | –
22 | O=C(Cn1sc2ccccc2c1=O)N1CCN(C(=O)Cn2sc3ccccc3c2=O)CC1 [compound 24, 2,2′-(2,2′-(piperazine-1,4-diyl)bis(2-oxoethane-2,1-diyl))dibenzo[d]isothiazol-3(2H)-one] | 118 | –
23 | COC(=O)COc1nsc2nc(C)cc(C)c12 [compound 25, Methyl 2-(4,6-dimethylisothiazolo[5,4-b]pyridin-3-yloxy)acetate] | 7.8 | –
24 | Cc1cc(C)c2c(OCC(=O)O)nsc2n1 [compound 26, 2-(4,6-Dimethylisothiazolo[5,4-b]pyridin-3-yloxy)acetic acid] | 16.4 | –
25 | Cc1cc(C)c2c(OCC(=O)N3CCOCC3)nsc2n1 [compound 27, 2-(4,6-Dimethylisothiazolo[5,4-b]pyridin-3-yloxy)-1-morpholinoethanone] | 16 | melting point: 153 to 155 °C
